Assay results from paper PMC7550916 (Computational and Structural Biotechnology Journal, 2020).

Columns and labels:
[1] = system: human A2A^Δ40R (pHALO-tagged); type: binding
[2] = system: non-transfected HEK-293T cells; assay: ERK1/2 phosphorylation in non-transfected cells; type: cell-based, human; conditions: non-transfected HEK-293T cells (Fig. S1A)
A2AR = A2AR (Homo sapiens, UniProt P29274); assay: cAMP determination; conditions: against all agonists (Fig. S8)
A2AR, sequence (P29274 whole entry): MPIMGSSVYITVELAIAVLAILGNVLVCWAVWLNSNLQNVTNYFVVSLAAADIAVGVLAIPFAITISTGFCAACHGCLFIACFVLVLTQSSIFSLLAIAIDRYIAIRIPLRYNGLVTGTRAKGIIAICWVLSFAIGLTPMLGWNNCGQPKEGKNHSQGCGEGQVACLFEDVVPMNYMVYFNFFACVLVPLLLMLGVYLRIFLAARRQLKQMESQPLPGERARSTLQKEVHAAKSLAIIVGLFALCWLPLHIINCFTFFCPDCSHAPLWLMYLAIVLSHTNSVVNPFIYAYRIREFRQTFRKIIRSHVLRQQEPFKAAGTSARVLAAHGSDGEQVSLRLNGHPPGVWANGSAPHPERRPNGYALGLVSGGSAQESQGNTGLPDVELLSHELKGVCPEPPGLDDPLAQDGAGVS

| SMILES | ΔΔG (binding free energy difference between wild type and truncated receptor) [1] | ERK1/2 phosphorylation vs basal [2] | effect of antagonist on agonist-induced cAMP production (A2AR) |
| --- | --- | --- | --- |
| CCNC(=O)[C@H]1O[C@@H](n2cnc3c(N)nc(NCCc4ccc(CCC(=O)O)cc4)nc32)[C@H](O)[C@@H]1O [CGS-21680] | 0.5 kcal/mol | not significantly different to the basal condition |  |
| Nc1nc2c(cnn2CCc2ccccc2)c2nc(-c3ccco3)nn12 [SCH-58261] |  |  | blockade of cAMP production |
